Values quoted from earlier work as cited in PubChem BioAssay AID1259409 (Chemical Carcinogenesis Research Information System (CCRIS), 2018).

Test system: rodent chemically induced tumor inhibition, incidence and multiplicity
Assay: CCRIS tumor inhibitor studies

| Compound | tumour outcome (control, treated, inhibition, significance) (Carcinogen: 4-NITROQUINOLINE-1-OXIDE, 56-57-5, Dose [Inhibitor]: 0, 500 PPM IN DIET FOR 7 WK BEGINNING 1 WK PRIOR TO START OF CARCINOGEN TREATMENT (STUDY DURATION: 32 WK), Route [Inhibitor]: ORAL, Species: RAT, Strain/Sex: F344/MALE, Target Tissue: Type of Lesion: TONGUE: PAPILLOMA, Dose [Carcinogen]: 20 PPM IN DRINKING WATER FOR 5 WK, Promoter: NONE USED) | tumour outcome (control, treated, inhibition, significance) (Carcinogen: 7,12-DIMETHYLBENZ[A]ANTHRACENE, 57-97-6, Dose [Inhibitor]: 0.5% IN POWDERED DIET BEGINNING 1 WK POST CARCINOGEN DOSE FOR 51 WK (STUDY DURATION: 52 WK), Route [Inhibitor]: ORAL, Species: RAT, Strain/Sex: SPRAGUE-DAWLEY/FEMALE, Target Tissue: Type of Lesion: EAR DUCT: BENIGN TUMOR, Dose [Carcinogen]: 2.5 MG/100 G BW IN 0.5 ML SESAME OIL ONCE, Promoter: NONE USED) | tumour outcome (control, treated, inhibition, significance) (Carcinogen: 7,12-DIMETHYLBENZ[A]ANTHRACENE, 57-97-6, Dose [Inhibitor]: 0.5% IN POWDERED DIET BEGINNING 1 WK POST CARCINOGEN DOSE FOR 51 WK (STUDY DURATION: 52 WK), Route [Inhibitor]: ORAL, Species: RAT, Strain/Sex: SPRAGUE-DAWLEY/FEMALE, Target Tissue: Type of Lesion: MAMMARY GLAND: CARCINOMA, Dose [Carcinogen]: 2.5 MG/100 G BW IN 0.5 ML SESAME OIL ONCE, Promoter: NONE USED) | tumour outcome (control, treated, inhibition, significance) (Carcinogen: 7,12-DIMETHYLBENZ[A]ANTHRACENE, 57-97-6, Dose [Inhibitor]: 0.5% IN POWDERED DIET BEGINNING 1 WK POST CARCINOGEN DOSE FOR 51 WK (STUDY DURATION: 52 WK), Route [Inhibitor]: ORAL, Species: RAT, Strain/Sex: SPRAGUE-DAWLEY/FEMALE, Target Tissue: Type of Lesion: MAMMARY GLAND: FIBROADENOMA, Dose [Carcinogen]: 2.5 MG/100 G BW IN 0.5 ML SESAME OIL ONCE, Promoter: NONE USED) | tumour outcome (control, treated, inhibition, significance) (Carcinogen: 7,12-DIMETHYLBENZ[A]ANTHRACENE, 57-97-6, Dose [Inhibitor]: 10 UMOL IN 200 µL ACETONE/DMSO (90:10) 2/WK FOR 19 WK BEGINNING 1 WK POST CARCINOGEN DOSE (STUDY DURATION: 20 WK), Route [Inhibitor]: DERMAL, Species: MOUSE, Strain/Sex: CD-1/FEMALE, Target Tissue: Type of Lesion: SKIN: PAPILLOMA, Dose [Carcinogen]: 200 NMOL IN 200 µL ACETONE ONCE, Promoter: 12-O-TETRADECANOYLPHORBOL-13-ACETATE, 16561-29-8) | tumour outcome (control, treated, inhibition, significance) (Carcinogen: 7,12-DIMETHYLBENZ[A]ANTHRACENE, 57-97-6, Dose [Inhibitor]: 20 UMOL IN 200 µL ACETONE/DMSO (90:10) 2/WK FOR 19 WK BEGINNING 1 WK POST CARCINOGEN DOSE (STUDY DURATION: 20 WK), Route [Inhibitor]: DERMAL, Species: MOUSE, Strain/Sex: CD-1/FEMALE, Target Tissue: Type of Lesion: SKIN: PAPILLOMA, Dose [Carcinogen]: 200 NMOL IN 200 µL ACETONE ONCE, Promoter: 12-O-TETRADECANOYLPHORBOL-13-ACETATE, 16561-29-8) | tumour outcome (control, treated, inhibition, significance) (Carcinogen: BENZO[A]PYRENE, 50-32-8, Dose [Inhibitor]: 0.06 MMOL/G OF DIET STARTING 8 D BEFORE AND CONTINUING THROUGH 3 D AFTER LAST CARCINOGEN TREATMENT (STUDY DURATION: 148, Route [Inhibitor]: ORAL, Species: MOUSE, Strain/Sex: ICR/FEMALE, Target Tissue: Type of Lesion: FORESTOMACH: NEOPLASM, Dose [Carcinogen]: 1 MG IN 0.2 ML CORN OIL 2/WK FOR 4 WK, Promoter: NONE USED) | tumour outcome (control, treated, inhibition, significance) (Carcinogen: N-NITROQUINOLINE-1-OXIDE, 56-57-5, Dose [Inhibitor]: 0, 500 PPM IN DIET FOR 7 WK BEGINNING 1 WK PRIOR TO START OF CARCINOGEN TREATMENT (STUDY DURATION: 32 WK), Route [Inhibitor]: ORAL, Species: RAT, Strain/Sex: F344\MALE, Target Tissue: Type of Lesion: TONGUE: CARCINOMA, Dose [Carcinogen]: 20 PPM IN DRINKING WATER FOR 5 WK, Promoter: NONE USED) | tumour outcome (control, treated, inhibition, significance) (Carcinogen: BENZO[A]PYRENE, 50-32-8, Dose [Inhibitor]: 0, 0.125 MG IN 0.1 ML DMSO 3/WK FOR 6 WK AFTER WEANING (STUDY DURATION: 9 WK), Route [Inhibitor]: INTRAPERITONEAL, Species: MOUSE, Strain/Sex: SWISS WEBSTER/MALE, FEMALE, Target Tissue: Type of Lesion: LUNG: ADENOMA, Dose [Carcinogen]: 0.5 MG IN AQUEOUS GELATIN WITHIN 24 HRS AFTER BIRTH, Promoter: NONE USED) | tumour outcome (control, treated, inhibition, significance) (Carcinogen: BENZO[A]PYRENE, 50-32-8, Dose [Inhibitor]: 0, 0.125 MG IN 0.1 ML DMSO 3/WK FOR 6 WK AFTER WEANING (STUDY DURATION: 9 WK), Route [Inhibitor]: INTRAPERITONEAL, Species: MOUSE, Strain/Sex: SWISS/FEMALE, Target Tissue: Type of Lesion: LUNG: ADENOMA, Dose [Carcinogen]: 0.5 MG IN 1% AQUEOUS GELATIN TO 24 HR OLD MICE ONCE, Promoter: NONE USED) | tumour outcome (control, treated, inhibition, significance) (Carcinogen: BENZO[A]PYRENE, 50-32-8, Dose [Inhibitor]: 0, 500 MG/KG IN 0.1 ML DMSO 2 D PRIOR TO EACH CARCINOGEN DOSE 1/WK FOR 4 WK (STUDY DURATION: 30 WK), Route [Inhibitor]: GAVAGE, Species: MOUSE, Strain/Sex: SWISS/FEMALE, Target Tissue: Type of Lesion: FORESTOMACH: CARCINOMA, Dose [Carcinogen]: 3 MG IN 0.2 ML CORN OIL 1/WK FOR 4 WK, Promoter: NONE USED) | tumour outcome (control, treated, inhibition, significance) (Carcinogen: BENZO[A]PYRENE, 50-32-8, Dose [Inhibitor]: 0, 500 MG/KG IN 0.1 ML DMSO 2 D PRIOR TO EACH CARCINOGEN DOSE 1/WK FOR 4 WK (STUDY DURATION: 30 WK), Route [Inhibitor]: GAVAGE, Species: MOUSE, Strain/Sex: SWISS/FEMALE, Target Tissue: Type of Lesion: FORESTOMACH: PAPILLOMA, Dose [Carcinogen]: 3 MG IN 0.2 ML CORN OIL 1/WK FOR 4 WK, Promoter: NONE USED) | tumour outcome (control, treated, inhibition, significance) (Carcinogen: BENZO[A]PYRENE, 50-32-8, Dose [Inhibitor]: 0, 500 MG/KG IN 0.1 ML DMSO 2 D PRIOR TO EACH CARCINOGEN DOSE 1/WK FOR 4 WK (STUDY DURATION: 30 WK), Route [Inhibitor]: GAVAGE, Species: MOUSE, Strain/Sex: SWISS/FEMALE, Target Tissue: Type of Lesion: LUNG: ADENOMA, Dose [Carcinogen]: 3 MG IN 0.2 ML CORN OIL 1/WK FOR 4/WK, Promoter: NONE USED) | tumour outcome (control, treated, inhibition, significance) (Carcinogen: N-METHYL-N-NITROSOUREA, 684-93-5, Dose [Inhibitor]: 0, 10 MG/KG IN DIET FOR DURATION OF STUDY BEGINNING POST CARCINOGEN DOSE (STUDY DURATION: 18 WK), Route [Inhibitor]: ORAL, Species: RAT, Strain/Sex: SPRAGUE-DAWLEY/FEMALE, Target Tissue: Type of Lesion: MAMMARY GLAND: TUMOR, Dose [Carcinogen]: 40 MG/KG BW ONCE, Promoter: NONE USED) | tumour outcome (control, treated, inhibition, significance) (Carcinogen: N-METHYL-N-NITROSOUREA, 684-93-5, Dose [Inhibitor]: 0, 50 MG/KG IN DIET FOR DURATION OF STUDY BEGINNING POST CARCINOGEN DOSE (STUDY DURATION: 18 WK), Route [Inhibitor]: ORAL, Species: RAT, Strain/Sex: SPRAGUE-DAWLEY/FEMALE, Target Tissue: Type of Lesion: MAMMARY GLAND: TUMOR, Dose [Carcinogen]: 40 MG/KG BW ONCE, Promoter: NONE USED) |
| --- | --- | --- | --- | --- | --- | --- | --- | --- | --- | --- | --- | --- | --- | --- | --- |
| O=C(O)/C=C/c1ccc(O)c(O)c1 | 1/15 (7%), 0/15 (0%), 100%, not significant | 7/19 (37%), 10/19 (53%), -43%, not calculated | 6/19 (32%), 9/19 (47%), -50%, not calculated | 15/19 (79%), 11/19 (58%), 27%, not calculated | 68%, 47%, 31%, not calculated | 68%, 38%, 44%, not calculated | 100%, 94%, 6%, not significant | 9/15 (60%), 0/15 (0%), 100%, p=0.00035 |  |  |  |  |  |  |  |
| COc1ccc(-c2coc3cc(O)cc(O)c3c2=O)cc1 |  |  |  |  |  |  |  |  | 20/35 (57%), 2/16 (13%), 77%, p<0.01 | 11/19 (58%), 2/16 (13%), 78%, p<0.01 | 13/26 (50%), 4/24 (17%), 66%, p<0.02 | 25/26 (96%), 21/24 (88%), 8%, not calculated | 24/26 (92%), 20/24 (83%), 10%, not calculated | 16/20 (80%), 11/19 (58%), 28%, not calculated | 16/20 (80%), 6/19 (32%), 60%, p<0.01 |
